Measurements published in ChEMBL document CHEMBL4219066, “Identification and Mitigation of Reactive Metabolites of 2-Aminoimidazole-Containing Microsomal Prostaglandin E Synthase-1 Inhibitors Terminated Due to Clinical Drug-Induced Liver Injury” (J Med Chem, 2018).
Each block holds one molecule with its values, some of them ahead of it.

What was measured:
Assay type in all cases: ADME, cell-based, Hepatocyte
[1] = Drug metabolism in rat hepatocytes assessed as metabolite formation at 2 uM after 4 hrs by LC-MS/MS analysis
[2] = Drug metabolism in human hepatocytes assessed as metabolite formation at 2 uM after 4 hrs by LC-MS/MS analysis
[3] = Drug level in human hepatocytes treated with 2-Chloro-N-(4-(hydroxymethyl)-1H-imidazol-2-yl)-5-(pivalamidomethyl)benzamide at 2 uM after 4 hrs by LC-MS/MS analysis
[4] = Drug level in rat hepatocytes treated with 2-Chloro-N-(4-(hydroxymethyl)-1H-imidazol-2-yl)-5-(pivalamidomethyl)benzamide at 2 uM after 4 hrs by LC-MS/MS analysis
[5] = Drug level in human hepatocytes treated with 2-(2-Chloro-5-(pivalamidomethyl)benzamido)-N-phenyl-1Himidazole-4-carboxamide at 2 uM after 4 hrs by LC-MS/MS analysis
[6] = Drug level in rat hepatocytes treated with 2-(2-Chloro-5-(pivalamidomethyl)benzamido)-N-phenyl-1Himidazole-4-carboxamide at 2 uM after 4 hrs by LC-MS/MS analysis
[7] = Drug metabolism in human hepatocytes assessed as N-carbamimidoyl-2-chloro-5-(pivalamidomethyl)benzamide formation at 2 uM after 4 hrs by LC-MS/MS analysis
[8] = Drug metabolism in rat hepatocytes assessed as N-carbamimidoyl-2-chloro-5-(pivalamidomethyl)benzamide formation at 2 uM after 4 hrs by LC-MS/MS analysis
[9] = Drug metabolism in rat hepatocytes assessed as 2-chloro-N-(4,5-dimethyl-1H-imidazol-2-yl)-5-((3-hydroxy-2,2-dimethylpropanamido)methyl)benzamide formation at 2 uM after 4 hrs by LC-MS/MS analysis
[10] = Drug metabolism in human hepatocytes assessed as 2-chloro-N-(4,5-dimethyl-1H-imidazol-2-yl)-5-((3-hydroxy-2,2-dimethylpropanamido)methyl)benzamide formation at 2 uM after 4 hrs by LC-MS/MS analysis
[11] = Drug metabolism in rat hepatocytes assessed as 2-chloro-N-(4-(hydroxymethyl)-5-methyl-1H-imidazol-2-yl)-5-(pivalamidomethyl)benzamide formation at 2 uM after 4 hrs by LC-MS/MS analysis
[12] = Drug metabolism in human hepatocytes assessed as 2-chloro-N-(4-(hydroxymethyl)-5-methyl-1H-imidazol-2-yl)-5-(pivalamidomethyl)benzamide formation at 2 uM after 4 hrs by LC-MS/MS analysis
[13] = Drug metabolism in rat hepatocytes assessed as 2-chloro-5-((3-hydroxy-2,2-dimethylpropanamido)methyl)-N-(4-methyl-1H-imidazol-2-yl)benzamide formation at 2 uM after 4 hrs by LC-MS/MS analysis
[14] = Drug metabolism in human hepatocytes assessed as 2-chloro-5-((3-hydroxy-2,2-dimethylpropanamido)methyl)-N-(4-methyl-1H-imidazol-2-yl)benzamide formation at 2 uM after 4 hrs by LC-MS/MS analysis
[15] = Drug metabolism in rat hepatocytes assessed as 2-chloro-N-(4-(hydroxymethyl)-1H-imidazol-2-yl)-5-(pivalamidomethyl)benzamide formation at 2 uM after 4 hrs by LC-MS/MS analysis
[16] = Drug metabolism in human hepatocytes assessed as 2-chloro-N-(4-(hydroxymethyl)-1H-imidazol-2-yl)-5-(pivalamidomethyl)benzamide formation at 2 uM after 4 hrs by LC-MS/MS analysis

Drug metabolism [1]: Metabolite_Notdetected | Drug metabolism [2]: Metabolite_Notdetected
Structure (SMILES): CC(C)(C)C(=O)NCc1ccc(Cl)c(C(=O)Nc2nc(C(N)=O)c[nH]2)c1

Drug metabolism [3]: Metabolite_Detected | Drug metabolism [4]: Metabolite_Detected | Drug metabolism [5]: Metabolite_Detected | Drug metabolism [6]: Metabolite_Detected
Structure (SMILES): CC(C)(C)C(=O)NCc1ccc(Cl)c(C(=O)Nc2nc(C(=O)O)c[nH]2)c1

Drug metabolism [7]: Metabolite_Detected | Drug metabolism [8]: Metabolite_Detected | Drug metabolism [9]: Metabolite_Detected | Drug metabolism [10]: Metabolite_Detected | Drug metabolism [11]: Metabolite_Detected | Drug metabolism [12]: Metabolite_Detected
Structure (SMILES): Cc1nc(NC(=O)c2cc(CNC(=O)C(C)(C)C)ccc2Cl)[nH]c1C

Drug metabolism [7]: Metabolite_Detected | Drug metabolism [8]: Metabolite_Detected | Drug metabolism [13]: Metabolite_Detected | Drug metabolism [14]: Metabolite_Detected | Drug metabolism [15]: Metabolite_Detected | Drug metabolism [16]: Metabolite_Detected
Structure (SMILES): Cc1c[nH]c(NC(=O)c2cc(CNC(=O)C(C)(C)C)ccc2Cl)n1
